Data published in article PMC11574061, “Experimental and computational studies on possibility of using glucose diazacrown cryptand as a carrier for anticancer drugs busulfan and lomustine” (Scientific Reports, 2024).
≈ marks a conversion by molar mass, not a printed value. Like-named read-outs stand apart in the source and are kept apart here.

How the values were obtained:
[1] = Approximate water solubility, stepwise addition of water; type: physicochemical; settings: thermodynamic from solid; in water; estimated approximately, 1 mg substance, water added in 0.1 ml portions until clear
Method: The complexes were prepared according to the procedure described in a previous publication for the complex of another cryptand with BSF[7]. A solution of 2.5 mg (0.01 mmol) BSF in 0.25 ml DMSO was added under argon to a solution of 9.8 mg (0.01 mmol) cryptand 9 (L1) in 12.5 ml water at room temperature. […] The water solubility of the pure cryptand L1, both drugs and their complexes was estimated approximately using a simple method. For each compound separately, 1 mg of the substance was placed in a vial and water was added to it in portions of 0.1 ml. After each addition, the mixture was stirred for 10 min, and the clarity of the solution was checked with a magnifying glass. Stirring was stopped when the solution became completely clear.

[2] = test system: normal colon fibroblasts CCD-18Co; assay: MTT cytotoxicity assay, CCD-18Co; type: cell-based, human; settings: 72 h
Method: (§1) Breast cancer cells MCF-7, colon cancer cells HT-29, normal breast epithelial cells MCF-10 A and normal colon fibroblasts CCD-18Co were used as a cell model for testing the effect of compounds on the viability of cells. The cells were seeded in Dulbecco’s Modified Eagle Medium (DMEM) medium in 96-well plates and incubated for 24 h in a 5% CO2 atmosphere at 37 °C. MCF-10 A cells were grown in a medium supplemented with 0.4% bovine pituitary extract (BPE), 3 ng ml^− 1 hEGF, 5 µg ml^− 1 insulin, 0.5 µg ml^− 1 hydrocortisone and 100ng mL^− 1 cholera toxin. After that, cells were treated with different concentrations: 2.5, 10, 25, 50, 100, and 200 µM, of compounds for 72 h. Busulfan and lomustine were freshly dissolved in DMSO immediately before cell treatment. The solution of other compounds (lyophilized) were prepared in 30% DMSO. Then, a series of dilutions were prepared. The final concentrations of drugs, cryptand and complexes were in range 2.5–200 µM. The final concentration of DMSO diluted in culture medium was 0.2% for all experiments. The controls (without drugs) were treated with 0.2% DMSO. In this concentration DMSO was not cytotoxic for cells which was confirmed by preliminary experiments. The viability of cells treated with the tested compounds was assessed by measuring the ability of live cells to metabolize 3-(4,5-dimethylthiazolo-2-yl)-2,5-diphenyl tetrazolium bromide (MTT) to formazan, using a standard protocol. Briefly, after incubation with compounds, the medium of each well was discarded, cells were washed with PBS, and then 100 µL of fresh media with 10 µL MTT solution (5 mg mL^− 1 in PBS) was added to each well. After 4 h incubation at 37 °C, the produced formazan was solubilized by the addition of DMSO, and the absorbance of each well was determined at 570 nm using an ELISA reader. The results were expressed as the mean of at least four replicates as a percentage of control (taken as 100% - cells).

[3] = test system: colon cancer cells HT-29; assay: MTT cytotoxicity assay, HT-29; type: cell-based, human
Method: as §1

[4] = test system: normal breast epithelial cells MCF-10 A; assay: MTT cytotoxicity assay, MCF-10 A; type: cell-based, human; settings: 72 h
Method: as §1

[5] = test system: breast cancer cells MCF-7; assay: MTT cytotoxicity assay, MCF-7; type: cell-based, human
Method: as §1

[6] = CCD-18Co normal colon cells, MTT, 2.5–200 µM, mean ± SD, – = IC50 not reached in the range used
[7] = HT-29 colon cancer cells, 72 h, MTT, 2.5–200 µM, mean ± SD, – = IC50 not reached in the range used
[8] = MCF-10 A normal breast cells, MTT, 2.5–200 µM, mean ± SD, – = IC50 not reached in the range used
[9] = MCF-7 breast cancer cells, 72 h, MTT, 2.5–200 µM, mean ± SD, – = IC50 not reached in the range used
[10] = Homo sapiens, CCD-18Co, read-out: IC50
[11] = Homo sapiens, HT-29, 72 h, read-out: IC50
[12] = Homo sapiens, MCF-10A, read-out: IC50
[13] = Homo sapiens, MCF7, 72 h, read-out: IC50

Question: Which solubility [1] does the source give for `O=C1NCC2OC(NC(=O)N3CCOCCOCCN(CCOCCOCC3)C(=O)NC3OC(CNC(=O)N4CCOCCOCCN1CCOCCOCC4)C(O)C(O)C3O)C(O)C(O)C2O` (stereo not shown) [L1] here?
Answer: 20000 µg/mL (≈ 20.3 mM)

Question: What about the IC50 [2, 6] of the same molecule?
Answer: had not been reached

Question: And the IC50 [3, 7]?
Answer: had not been reached

Question: And the IC50 [4, 8]?
Answer: had not been reached

Question: And the IC50 [5, 9]?
Answer: had not been reached

Question: Which solubility [1] does the source give for `O=NN(CCCl)C(=O)NC1CCCCC1` [CCNU, 1-(2-chloroethyl)-3-cyclohexyl-1-nitrosourea] here?
Answer: 50 µg/mL (≈ 0.214 mM)

Question: What about the IC50 [2, 10] of the same molecule?
Answer: 56.2 ± 7.8 µM

Question: What about the IC50 [3, 11] of the same molecule?
Answer: 8.91 ± 1.5 µM

Question: What about the IC50 [4, 12] of the same molecule?
Answer: 48.9 ± 5.4 µM

Question: And the IC50 [5, 13]?
Answer: 8.41 ± 1.6 µM

Question: Which solubility [1] does the source give for `CS(=O)(=O)OCCCCOS(C)(=O)=O` [BSF, butane-1,4-diyl dimethanesulfonate] here?
Answer: 130 µg/mL

Question: What about the IC50 [2, 6] of the same molecule?
Answer: not achieved

Question: What about the IC50 [2, 10] of the same molecule?
Answer: > 200 µM

Question: And the IC50 [3, 7]?
Answer: not achieved

Question: And the IC50 [3, 11]?
Answer: > 200 µM

Question: And the IC50 [4, 12]?
Answer: > 200 µM

Question: And the IC50 [4, 8]?
Answer: not achieved

Question: And the IC50 [5, 13]?
Answer: > 200 µM

Question: What about the IC50 [5, 9] of the same molecule?
Answer: not achieved
